Test system: 28S and 18S ribosomal RNA
Assay: ribosomal RNA by agarose-formaldehyde gel electrophoresis and ethidium bromide staining
Type: cell-based, human
Details: MazF expressed for 72 hours, T-Rex-293 cells
Protocol: Total RNA from Tet-treated or -untreated T-Rex-293 cells at the indicated time points was probed with ^32P-labeled human GAPDH and β-actin cDNA. 28S and 18S ribosomal RNAs were visualized by agarose-formaldehyde gel electrophoresis followed by ethidium bromide staining. […] Human GAPDH and β-actin mRNA levels were quantified by real-time RT-PCR. Relative amounts of mRNA were calculated from the fluorescence signal in the 24-, 48- and 72-hours samples as compared with the corresponding 0-hour sample.

Substance: MazF: E. coli toxin; sequence specific endoribonuclease (mRNA interferase) cleaving single-stranded RNAs at ACA sequences; expressed from plasmid pcDNA4/TO/mazF
- levels of 28S and 18S ribosomal RNA: did not change

From US20090047742A1 (priority 2005, published 2009)
